Test results from patent US4921847A, “Trihalo(amine)gold(III) anti-tumor complexes” (Engelhard Corporation, priority 1989, dated 1990).
Several values for one entry are separate records, joined by “and”; a condition that tells them apart may be missing. Equal entries are not always repeated.

Key:
Sarcoma 180 tumors [1] = experiment: Therapeutic index (LD50/ED90), implanted Sarcoma 180 tumors; type: in vivo, Swiss white mice; set-up: ED90: unit not given here; conditions: for Therapeutic Index: LD50/ED90; for Maximum % ILS (Dosage): S 180 ascites; for ED90: dose giving 50% increase in life span for 90% of the animals, determined graphically
S180 ascites = experiment: Anti-tumor evaluation against S180 ascites in mice (% increase in life span, survivors); type: in vivo, female CFW Swiss mice; conditions: for Survivors: day of evaluation; for Anti-tumor activity (in words): 50% ILS criterion; for % ILS against criterion for anti-tumor activity: failed to meet the 50% ILS criterion
Method: The above prepared compounds were evaluated against S180 ascites in female CFW Swiss mice. The mice were weighed (average weight: 20 g), placed into cages (six mice to a cage) and on day zero the mice were inoculated with 0.2 ml of a freshly prepared saline suspension (0.15 M NaCl) containing 1×10^7 tumor cells/ml or a total of 2×10^6 cells. This inoculum was freshly prepared using "transfer" mice which had been injected with tumor cells the previous week; it was obtained via the following steps: (1) the removal of cells from the peritoneal cavity of the sacrificed transfer mouse, (2) alternate centrifugation and washing operations (2-3 times with cold saline) to remove blood and other components, and (3) dilution of the volume of the packed cell with saline (1:3). A final centrifugation was carried out at 1000 RPM over a two minute period. A cell count was made on a 2,000-fold dilution of this 1:3 suspension by means of a Coulter Counter. A final dilution to 1×10^7 cells/ml was made based on the average count.
On day 1, solutions of the test compounds were prepared and each mouse in a set of six were injected with the same test compound at the same dosage. The doses were based on the average weight of the animals (cage weight). Also, beginning on day 1 two controls were employed containing six mice per control:
(1) Normal Control: This consisted solely of the carrier or diluent used in combination with the test compound; and
(2) Positive Control: This consisted solely of the known anti-tumor agent cis-[Pt(NH3)2 Cl2 ] (Cisplatin) in saline (8 mg/kg) to test the response of the biological system.
The effectiveness of a test compound was measured in terms of the % increase in life span (%ILS) of the test mice relative to the Normal Control (Calculated from the day of tumor inoculation, i.e., day zero). To standardize the test data and permit intercomparisons, the day of evaluation was arbitrarily taken as that day corresponding to twice the mean life span (or average day of death) of the control. This established a practical upper limit of 100% on the %ILS attainable. For calculation purposes the survivors on the day of evaluation were considered to have died on that day. The %ILS was calculated as follows: [formula] ILS values in excess of 50% were interpreted as being indicative of anti-tumor activity, whereas, values in excess of 75% indicated excellent activity.
The products of Examples 1, 4, 10 and 11 were administered in a freshly prepared 1% sodium bicarbonate solution; the remaining test compounds were administered as slurries in 0.5% "Klucel" (hydroxypropylcellulose).

Solubility = type: physicochemical
Sarcoma 180 tumors [2] = conditions: comparison value; cited from earlier work

| Molecule | Therapeutic Index (Sarcoma 180 tumors [1]) | ED90 (Sarcoma 180 tumors [1]) | % ILS (S180 ascites; S 180 ascites, 10 mg/kg) | Survivors (S180 ascites; S 180 ascites, 10 mg/kg) | % ILS (S180 ascites; S 180 ascites, 20 mg/kg) | Survivors (S180 ascites; S 180 ascites, 20 mg/kg) | % ILS (S180 ascites; S 180 ascites, 40 mg/kg) | Survivors (S180 ascites; S 180 ascites, 40 mg/kg) | % ILS (S180 ascites; S 180 ascites, 80 mg/kg) | Survivors (S180 ascites; S 180 ascites, 80 mg/kg) | % ILS (S180 ascites; S 180 ascites, 160 mg/kg) | Survivors (S180 ascites; S 180 ascites, 160 mg/kg) | % ILS (S180 ascites; S 180 ascites, 320 mg/kg) | Survivors (S180 ascites; S 180 ascites, 320 mg/kg) | solubility in 1% sodium bicarbonate solution (Solubility) | Maximum % ILS (Dosage) (Sarcoma 180 tumors [1]; 40 mg/kg) | Anti-tumor activity (in words) (S180 ascites; S 180 ascites) | other results |
| --- | --- | --- | --- | --- | --- | --- | --- | --- | --- | --- | --- | --- | --- | --- | --- | --- | --- | --- |
| O=C(O)c1ccc[n+]([Au-]([Cl])([Cl])[Cl])c1 [Example 1, Trichloro(Nicotinic Acid)Gold(III)] | 5.8 | 31 | -3% | 0 of 6 | 60% | 3 of 6 | 91% | 3 of 6 | 98% | 4 of 6 | 1% | 0 of 6 | -69% | 0 of 6 | 12.8 mg/mL |  |  | Maximum % ILS (Dosage) (Sarcoma 180 tumors [1]; 80 mg/kg): 98%; peak ILS values (S180 ascites; S 180 ascites): > 90% |
| Cn1cc[n+]([Au-]([Cl])([Cl])[Cl])c1 [Example 2, Trichloro(N-Methylimidazole)Gold(III)] | 2.8 | 31 | 14% | 0 of 6 | 33% | 1 of 6 | 91% | 4 of 6 | 53% | 1 of 6 | -93% | 0 of 6 |  |  |  | 91% | decidedly active | peak ILS values (S180 ascites; S 180 ascites): > 90%; % ILS (S180 ascites; S 180 ascites, 5 mg/kg): 2%; Survivors (S180 ascites; S 180 ascites, 5 mg/kg): 0 of 6; active dose range (S180 ascites; S 180 ascites, decidedly active within the range): 20 to 40 mg/kg |
| CC(=O)c1ccc[n+]([Au-]([Cl])([Cl])[Cl])c1 [Example 3, trichloro(3-acetylpyridine)gold(III)] | 4.5 | 31 | -5% | 0 of 6 | 42% | 1 of 6 | 97% | 5 of 6 | 66% | 4 of 6 | 23% | 0 of 6 | -90% | 0 of 6 |  | 97% |  | peak ILS values (S180 ascites; S 180 ascites): > 90% |
| O=C(O)Cc1ccc[n+]([Au-]([Cl])([Cl])[Cl])c1 [Example 4, trichloro(3-pyridyacetic acid)gold(III)] | 1.8 | 84 | 6% | 0 of 6 | -15% | 0 of 6 | 63% | 1 of 6 | 57% | 1 of 6 | -41% | 0 of 6 | -90% | 0 of 6 | 12.8 mg/mL | 63% | pronounced antitumor effect |  |
| Oc1ccc[n+]([Au-]([Cl])([Cl])[Cl])c1 [Example 5] |  | 87 | 9% | 0 of 6 | 39% | 2 of 6 | 61% | 3 of 6 | 30% | 2 of 6 | -36% | 0 of 6 | -85% | 0 of 6 |  | 61% |  |  |
| OCc1ccc[n+]([Au-]([Cl])([Cl])[Cl])c1 [Example 6] | 2.1 | 43 | 6% | 0 of 6 | 63% | 1 of 6 | 85% | 3 of 6 | 46% | 0 of 6 | -70% | 0 of 6 | -93% | 0 of 6 |  | 85% |  |  |
| [Cl][Au]([Cl])[Cl].c1ccncc1 [Example 7, trichloro(pyridine)gold(III)] |  | 35 | 45% | 3 of 6 | 71% | 2 of 6 | 66% | 3 of 6 | -6% | 2 of 6 | -94% | 0 of 6 | -94% | 0 of 6 |  |  |  | Maximum % ILS (Dosage) (Sarcoma 180 tumors [1]; 20 mg/kg): 71% |
| [Cl][Au-]([Cl])([Cl])[n+]1cc[nH]c1 [Example 8, trichloro(imidazole)gold(III)] |  |  | -7% | 0 of 6 | 1% | 1 of 6 | -16% | 0 of 6 | 37% | 1 of 6 | 37% | 2 of 6 |  |  |  |  | considered to be inactive | % ILS (S180 ascites; S 180 ascites, 5 mg/kg): 5%; Survivors (S180 ascites; S 180 ascites, 5 mg/kg): 0 of 6; Anti-tumor activity (in words) (S180 ascites; S 180 ascites, listed as trichloro(imidazole)gold(III)): inactive in bringing about a regression of S 180 ascites at all doses tested; % ILS against criterion for anti-tumor activity (S180 ascites): < 50% |
| Cn1cc[n+]([Au-]([Br])([Br])[Br])c1 [Example 9, Tribromo(N-Methylimidazole)Gold(III)] | 2.0 | 42 | 5% | 0 of 6 | 76% | 4 of 6 | 66% | 3 of 6 | -1% | 1 of 6 | -94% | 0 of 6 | -94% | 0 of 6 |  |  |  | Maximum % ILS (Dosage) (Sarcoma 180 tumors [1]; 20 mg/kg): 76% |
| O=C(O)c1ccc[n+]([Au-]([Br])([Br])[Br])c1 [Example 10] |  |  | -23% | 0 of 6 | 26% | 0 of 6 | 64% | 2 of 6 | 49% | 0 of 6 | -19% | 0 of 6 | -95% | 0 of 6 | 12.8 mg/mL |  |  |  |
| O=C(O)Cc1ccc[n+]([Au-]([Br])([Br])[Br])c1 [Example 11, tribromo(3-pyridylacetic acid)gold(III)] |  |  | -16% | 0 of 6 | 20% | 0 of 6 | 10% | 0 of 6 | 31% | 1 of 6 | -21% | 0 of 6 | -92% | 0 of 6 | 12.8 mg/mL |  | considered to be inactive | Anti-tumor activity (in words) (S180 ascites; S 180 ascites, listed as tribromo(3-pyridylacetic acid)gold(III)): inactive as an anti-tumor agent; % ILS against criterion for anti-tumor activity (S180 ascites): < 50% |
| cis-[Pt(NH3)2 Cl2 ] [Cisplatin, reference compound] |  |  |  |  |  |  |  |  |  |  |  |  |  |  |  |  |  | Positive Control Survivors (S180 ascites; S 180 ascites, Cisplatin in saline, 8 mg/kg, one value per test series, listed as Positive Control): 0 of 6 and 4 of 6 and 6 of 6 and 1 of 6; Therapeutic index attributed to commercially available Cisplatin (Sarcoma 180 tumors [2]): 2.2-2.5 |
